Numbers after ± are expanded uncertainties.
Assays:
[1] = Molar enthalpy of transition or fusion; conditions: Crystal; DSC
[2] = Crystal; DTA

| Molar enthalpy of transition or fusion [1] | Normal melting temperature [2] | Compound |
| --- | --- | --- |
| 3.19 ± 0.206 kcal/mol | 124.80 ± 0.53 °C | O=C1OC(=O)c2c(Cl)cccc21 [3-chlorophthalic anhydride] |
| 7.9 ± 0.239 kcal/mol | 94.20 ± 0.53 °C | O=C1OC(=O)c2cc(Cl)ccc21 [4-chlorophthalic anhydride] |
